Results reported in paper PMC9137037 (Frontiers in Oncology, 2022).
Where no end group is shown, it is not given here.

Assays:
BALB/c mice = assay: ELISA antibody titers in sera of immunized BALB/c mice; type: in vivo; conditions: mouse; Figure 1C
Procedure: The peptide vaccine MVF-PD-1(92-110) was dissolved in sterile water and mixed with either ISA 720 or ISA 51 (1:1) ratio. We utilized the well-established murine colon carcinoma cell line CT26 tumor model in syngeneic BALB/c mice to evaluate the effects of vaccination previously described ([23]). Briefly, 6–8-week-old female BALB/c mice were immunized with the peptide vaccine, and 2 weeks after the third immunization, the mice were challenged with 1×10^5 CT26 colon cancer cells by subcutaneous injection (SC). The CT26 cancer cell line was maintained in the DMEM medium with 10% FBS 5% CO2 at 37 °C. […] Tumor growth was monitored daily, especially 7 days after the tumor challenge. […]
Enzyme-linked immunosorbent assay (ELISA) was performed per our lab standard procedure. […] After washing, the antibody was detected using 50 μl of 0.15% H2O2 in 24 mM of citric acid and 5 mM of the sodium phosphate buffer (pH5.2) with 0.5 mg/ml 2, […] (3-ethylbenzthiazole- 6-sulfonic acid, ABTS; Sigma, St. Louis, MO, USA) as the chromophore. […] Absorbance was read at 415 nm using an ELISA microplate reader (SPECTRAmax PLUS384; Molecular Devices, San Jose, CA, USA). The highest dilution at the cutoff absorbance 0.2 were determined as the antibody titer. […]

beagle dogs [1] = assay: Safety observations in immunized beagle dogs; type: in vivo, dog
Procedure: (§1) In brief, the beagle dogs were purchased from Covance Research Products (Cumberland, VA, USA) and were housed in the Ohio State University Veterinarian Facility Institutional Animal Care Facility. The dogs were housed at 19°C−24°C room temperature with approximately 70% humidity, and 12 h light and 12 h dark–light cycle. The dogs’ body weights were at least 7.5 kg when they received the first immunization. […] The dogs received a total of 4 doses, immunization was done at the rear thigh with two sites of injections, the bleed was collected as indicated time points to monitor the antibody titers, and the body weight of each dog was monitored closely (see Figures 3B, C for detail).
This study was designed to monitor the kinetics of how quickly the antibody levels to MVF-PD-1(92-110) diminished after the dosing was stopped. The recall of an antibody response was also tested after re-challenge. Four beagle dogs were used in this study of MVF-PD-1(92-110) peptide cancer vaccine. Dogs #1, #2, and #3 were treated with MVF-PD-1(92-110) emulsified with nor-MDP and ISA 720 using different doses ( Figure 3A ). Dog#1 was treated with 1.0 mg low-dose peptide, dog#2 was treated with 1.5 mg medium-dose peptide, and dog #3 was treated with 3.0 mg high-dose peptide. The negative control dog #10 was only treated with the MVF peptide emulsified with nor-MDP and Montanide ISA720. Dogs were immunized 4 times designated as 1Y, 2Y, 3Y, and 4Y at Day 0, Day 35, Day 56, and 6 months after primary immunization, respectively. Blood was collected every 2 weeks, except for the first collection, which was 3 weeks after the primary immunization and 1 week after 2Y and 3Y immunization ( Figure 3B ). The sera were used to monitor the antibody titers. We monitored the beagle dogs’ body weight closely during the immunization period ( Figure 3C ).
• a) Beagle dogs were immunized with MVF-PD-1 (92-110) (3 dogs with 1 dog each at the doses of 1, 1.5, and 3 mg/dose). • b) All dogs administered with MVF-PD-1 (92-110) had high polyclonal anti-MVF-PD-1 (92-110) antibody titers. […] These injection site lesions were mostly attributed to the high volume of Montanide ISA 720 VG used in this study.

beagle dogs [2] = assay: ELISA antibody titers in sera of immunized beagle dogs; type: in vivo, dog; conditions: for antibody titers in sera (words): beagle dogs, 1.0, 1.5, 3.0 mg with nor-MDP and ISA 720, ELISA
Procedure: as §1
Enzyme-linked immunosorbent assay (ELISA) was performed per our lab standard procedure. Briefly, a 96-well plate was coated with 100 μl of MVF-PD-1(92-110) peptide as an antigen at 2 μg/ml in phosphate-buffered saline (PBS; Research Products International, Mt Prospect, IL, USA, CAS No. 7647-145) overnight at 4°C. Nonspecific binding sites were blocked for 1 h with 200 μl of PBS with 1% BSA (bovine serum albumin; Thermo Fisher Scientific, Waltham, […], USA, BP9703-100), and the plate was washed with a washing buffer (PBS diluted 0.05% Tween 1% horse serum). […] After washing, the antibody was detected using 50 μl of 0.15% H2O2 in 24 mM of citric acid and 5 mM of the sodium phosphate buffer (pH5.2) with 0.5 mg/ml 2, […] (3-ethylbenzthiazole- 6-sulfonic acid, ABTS; Sigma, St. Louis, MO, USA) as the chromophore. […] Absorbance was read at 415 nm using an ELISA microplate reader (SPECTRAmax PLUS384; Molecular Devices, San Jose, CA, USA). The highest dilution at the cutoff absorbance 0.2 were determined as the antibody titer.
This study was designed to monitor the kinetics of how quickly the antibody levels to MVF-PD-1(92-110) diminished after the dosing was stopped. […] We monitored the beagle dogs’ body weight closely during the immunization period ( Figure 3C ).

**Q.** What does the source list for “KLLSLIKGVIVHRLEGVEGPSLGAISLAPKAQIKESLRAEL [MVF-PD-1(92-110)]”?
**A.** immunogenicity (summary) (BALB/c mice): High immunogenicity ( Figure 1C );; dogs with adverse local reaction (lesions at or near the IM injection site) (beagle dogs [1]; 1, 1.5 and 3 mg/dose, 1 dog each, lesions resolved within a few weeks after dosing ceased, mostly attributed to high volume of Montanide ISA 720 VG): Two out of three; body weight by the end of the experiment compared with the initial weight (beagle dogs [1]; all dogs): gained some weight; induction of autoimmune responses (beagle dogs [1]; beagle dogs): has not been observed; safety (summary) (beagle dogs [1]; dog): safe; antibody titers in sera (words) (beagle dogs [2]): high titer antibody; antibody titers in sera (words) (beagle dogs [2]; listed as PD-1(92)): high immunogenicity; antibody titers after dosing stopped and after re-challenge (beagle dogs [2]; beagle dogs, 4Y boost 6 months after primary immunization): dropped to very low levels in the absence of dosing but could be recovered if the dog was re-challenged with vaccine
